Drawing on PubChem BioAssay AID328 (DTP/NCI, 2004), this text covers T/C for 16 compounds.

The experiment deals with BDF1 mice, P388 leukemia ip, median survival T/C. Nature of the experiment: NCI In Vivo Anticancer Drug Screen. Data for tumor model P388 Leukemia (intraperitoneal) in B6D2F1 (BDF1) mice. The following applies: endpoint: median survival time, higher = longer survival. Summed up:
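In tumour-bearing mice, survival after compound treatment is set against the vehicle group and given as a quotient.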

Where [1] appears, read: dose: 50.0 mg/kg/injection, schedule: Q01DX009 (ip), vehicle: saline with Tween-80.
Where [2] appears, read: dose: 100.0 mg/kg/injection, schedule: Q01DX009 (ip), vehicle: saline with Tween-80.
The mark [3] stands for this setting: dose: 200.0 mg/kg/injection, schedule: Q01DX009 (ip), vehicle: saline with Tween-80.
Setting [4] is: dose: 400.0 mg/kg/injection, schedule: Q01DX009 (ip), vehicle: saline with Tween-80.
Where [5] appears, read: dose: 6.25 mg/kg/injection, schedule: Q01DX009 (ip), vehicle: saline.
Setting [6] is: dose: 12.5 mg/kg/injection, schedule: Q01DX009 (ip), vehicle: saline.
Setting [7] is: dose: 25.0 mg/kg/injection, schedule: Q01DX009 (ip), vehicle: saline.

Values joined by “and” are separate entries in the source; they are usually repeats but may differ in a detail not shown here. Equal entries are not always repeated. Inconclusive results and toxic doses are left out. Residues, ends and D or L forms follow the SMILES beside them.

Take `CC(N)C(=O)NCCN(C)C` (configuration not stated): the T/C was 95 % of control (dose: 50.0 mg/kg/injection, schedule: Q01DX005 (ip), vehicle: saline); 107 % of control (dose: 100.0 mg/kg/injection, schedule: Q01DX005 (ip), vehicle: saline); 99 % of control (dose: 200.0 mg/kg/injection, schedule: Q01DX005 (ip), vehicle: saline).

For the compound `O=C1c2ccccc2-c2c(Br)c3ccccc3c(=O)n21`, the T/C is, setting by setting: under setting [1], 105 % of control; under setting [2], 105 % of control; under setting [3], 117 % of control; under setting [4], 101 % of control.

Regarding `O=C(O)CCCc1ccc(Oc2ccccc2)cc1`, the T/C (dose: 100.0 mg/kg/injection, schedule: Q04DX003 (ip), vehicle: other) was 92 % of control; the T/C (dose: 200.0 mg/kg/injection, schedule: Q04DX003 (ip), vehicle: other) is 93 % of control; the T/C (dose: 400.0 mg/kg/injection, schedule: Q04DX003 (ip), vehicle: other) is 86 % of control.

Regarding `CC(=O)c1ccc(Oc2ccc(/C(C)=N\N=C(N)N)cc2)cc1`, the T/C was 111 % of control under setting [5]; 112 % of control and 117 % of control under setting [6]; 116 % of control (dose: 16.0 mg/kg/injection, schedule: Q01DX009 (ip), vehicle: saline); 110 % of control under setting [7].

Regarding `COC(=O)C(C)=O`, the T/C is, setting by setting: under setting [2], 90 % of control; under setting [3], 95 % of control; under setting [4], 90 % of control.

For `NC(=O)NN=C1CSSC1`, the T/C by setting is: (dose: 0.78 mg/kg/injection, schedule: Q01DX009 (ip), vehicle: saline with Tween-80) 103 % of control; (dose: 0.78 mg/kg/injection, schedule: Q04DX003 (ip), vehicle: saline with Tween-80) 104 % of control; (dose: 1.56 mg/kg/injection, schedule: Q01DX009 (ip), vehicle: saline with Tween-80) 94 % of control; (dose: 1.56 mg/kg/injection, schedule: Q04DX003 (ip), vehicle: saline with Tween-80) 91 % of control; (dose: 3.12 mg/kg/injection, schedule: Q01DX009 (ip), vehicle: saline with Tween-80) 92 % of control; (dose: 3.12 mg/kg/injection, schedule: Q04DX003 (ip), vehicle: saline with Tween-80) 113 % of control. For the same compound, the T/C is 92 % of control (dose: 6.25 mg/kg/injection, schedule: Q01DX009 (ip), vehicle: saline with Tween-80); 100 % of control (dose: 6.25 mg/kg/injection, schedule: Q04DX003 (ip), vehicle: saline with Tween-80); 94 % of control (dose: 12.5 mg/kg/injection, schedule: Q01DX009 (ip), vehicle: saline with Tween-80); 95 % of control (dose: 12.5 mg/kg/injection, schedule: Q04DX003 (ip), vehicle: saline with Tween-80).

With `COc1cccc2c1C(=O)c1c(O)c3c(c(O)c1C2=O)C[C@@](O)(C(C)=O)C[C@@H]3OC1CC(NC(=O)c2ccncc2)C(O)C(C)O1` (some centres not stated), the T/C reads like this: (dose: 3.13 mg/kg/injection, schedule: Q01DX009 (ip), vehicle: water) 150 % of control; (dose: 6.25 mg/kg/injection, schedule: Q01DX009 (ip), vehicle: water) 154 % of control; (dose: 12.5 mg/kg/injection, schedule: Q01DX009 (ip), vehicle: water) 159 % of control.

As to `CC(=O)NC(C)C(=O)NC(C)C(=O)NC(C)C(=O)NC(C)C(=O)O` (configuration not stated) (Ac-AAAA-OH; configuration not given here), the T/C runs as follows: (dose: 50.0 mg/kg/injection, schedule: Q01DX005 (ip), vehicle: saline with Tween-80) 98 % of control; (dose: 100.0 mg/kg/injection, schedule: Q01DX005 (ip), vehicle: saline with Tween-80) 95 % of control.

Turning to `COc1c(O)cc2c(c1OC)-c1ccc(OC)c(=O)cc1[C@@H](NC(C)=O)CC2`, the T/C (dose: 0.62 mg/kg/injection, schedule: Q01DX009 (ip), vehicle: saline with Tween-80) is 114 % of control; the T/C (dose: 0.63 mg/kg/injection, schedule: Q01DX009 (ip), vehicle: saline with Tween-80) is 159 % of control; the T/C (dose: 1.25 mg/kg/injection, schedule: Q01DX009 (ip), vehicle: saline with Tween-80) was 210 % of control; the T/C (dose: 2.5 mg/kg/injection, schedule: Q01DX009 (ip), vehicle: saline with Tween-80) was 236 % of control and 200 % of control; the T/C (dose: 5.0 mg/kg/injection, schedule: Q01DX009 (ip), vehicle: saline with Tween-80) was 236 % of control and 222 % of control; the T/C (dose: 10.0 mg/kg/injection, schedule: Q01DX009 (ip), vehicle: saline with Tween-80) is 210 % of control.

For `CCCC1CCC(=C2C(=O)CCC2=O)O1` (configuration not stated), the T/C runs as follows: (dose: 3.13 mg/kg/injection, schedule: Q01DX009 (ip), vehicle: saline) 119 % of control; under setting [5], 119 % of control; under setting [6], 119 % of control; under setting [7], 119 % of control; (dose: 25.0 mg/kg/injection, schedule: Q04DX002 (ip), vehicle: saline with Tween-80) 113 % of control; (dose: 25.0 mg/kg/injection, schedule: Q04DX002 (ip), vehicle: saline) 107 % of control. For the same compound, the T/C was 103 % of control (dose: 50.0 mg/kg/injection, schedule: Q04DX002 (ip), vehicle: saline with Tween-80); 100 % of control (dose: 50.0 mg/kg/injection, schedule: Q04DX002 (ip), vehicle: saline); 120 % of control (dose: 100.0 mg/kg/injection, schedule: Q04DX002 (ip), vehicle: saline with Tween-80); 105 % of control (dose: 200.0 mg/kg/injection, schedule: Q04DX002 (ip), vehicle: saline).

Consider `C(COCCOCC1CO1)OCCOCC1CO1` (configuration not stated), for which the T/C runs as follows: (dose: 50.0 mg/kg/injection, schedule: Q01DX010 (ip), vehicle: saline) 109 % of control; (dose: 200.0 mg/kg/injection, schedule: Q01DX010 (ip), vehicle: saline) 150 % of control; (dose: 400.0 mg/kg/injection, schedule: Q01DX010 (ip), vehicle: saline) 154 % of control and 172 % of control.

For `CC1(C)OB(C(B2OC(C)(C)C(C)(C)O2)=C(CCl)CCl)OC1(C)C`, the T/C reads like this: (dose: 25.0 mg/kg/injection, schedule: Q01DX001 (ip), vehicle: saline sonified) 86 % of control; (dose: 50.0 mg/kg/injection, schedule: Q01DX001 (ip), vehicle: saline sonified) 95 % of control; (dose: 100.0 mg/kg/injection, schedule: Q01DX001 (ip), vehicle: saline sonified) 95 % of control.

For the compound `CCn1cnc2c(SC)nc(N)nc21`, the T/C by setting is: (dose: 25.0 mg/kg/injection, schedule: Q01DX009 (ip), vehicle: Klucel (hydroxypropylcellulose) (HPC)) 110 % of control; (dose: 50.0 mg/kg/injection, schedule: Q01DX009 (ip), vehicle: Klucel (hydroxypropylcellulose) (HPC)) 105 % of control; (dose: 50.0 mg/kg/injection, schedule: Q04DX003 (ip), vehicle: alcohol) 100 % of control; (dose: 75.0 mg/kg/injection, schedule: Q04DX003 (ip), vehicle: Klucel (hydroxypropylcellulose) (HPC)) 104 % of control; (dose: 100.0 mg/kg/injection, schedule: Q01DX009 (ip), vehicle: Klucel (hydroxypropylcellulose) (HPC)) 100 % of control; (dose: 100.0 mg/kg/injection, schedule: Q04DX003 (ip), vehicle: alcohol) 100 % of control. Moreover, the T/C runs as follows: (dose: 150.0 mg/kg/injection, schedule: Q04DX003 (ip), vehicle: Klucel (hydroxypropylcellulose) (HPC)) 100 % of control; (dose: 200.0 mg/kg/injection, schedule: Q04DX003 (ip), vehicle: alcohol) 100 % of control; (dose: 300.0 mg/kg/injection, schedule: Q04DX003 (ip), vehicle: Klucel (hydroxypropylcellulose) (HPC)) 109 % of control.

Consider `CCN(CC)CCNC1=CC(=S)NC(C)(C)C1`, for which the T/C is, setting by setting: (dose: 25.0 mg/kg/injection, schedule: Q01DX009 (ip), vehicle: saline with Tween-80) 101 % of control; under setting [1], 89 % of control and 111 % of control; under setting [2], 100 % of control; under setting [3], 88 % of control and 117 % of control.

On to `CC1=C(c2ccccc2)C(c2ccccc2)C(/C=C/c2ccccc2)=NC=C1c1ccccc1` (configuration not stated), for which the T/C under setting [1] was 108 % of control, the T/C under setting [2] was 94 % of control and the T/C under setting [3] was 97 % of control.

Regarding `Cc1cc2nc[nH]c(=O)n2n1`, the T/C under setting [1] was 110 % of control and the T/C under setting [2] is 90 % of control.
